Source: patent US5595903A (priority 1989, dated 1997)

B1: BuChE from human serum: Purified BuChE from human serum (protein, UniProt P06276 29-602, looked up)
Cholinesterase: EDDIIIATKNGKVRGMNLTVFGGTVTAFLGIPYAQPPLGRLRFKKPQSLTKWSDIWNATKYANSCCQNIDQSFPGFHGSEMWNPNTDLSEDCLYLNVWIPAPKPKNATVLIWIYGGGFQTGTSSLHVYDGKFLARVERVIVVSMNYRVGALGFLALPGNPEAPGNMGLFDQQLALQWVQKNIAAFGGNPKSVTLFGESAGAASVSLHLLSPGSHSLFTRAILQSGSFNAPWAVTSLYEARNRTLNLAKLTGCSRENETEIIKCLRNKDPQEILLNEAFVVPYGTPLSVNFGPTVDGDFLTDMPDILLELGQFKKTQILVGVNKDEGTAFLVYGAPGFSKDNNSIITRKEFQEGLKIFFPGVSEFGKESILFHYTDWVDDQRPENYREALGDVVGDYNFICPALEFTKKFSEWGNNAFFYYFEHRSSKLPWPEWMGVMHGYEIEFVFGLPLERRDNYTKAEEILSRSIVKRWANFAKYGNPNETQNNSTSWPVFKSTEQKYLTLNTESTRIMTKLRAQQCRFWTSFFPKVLEMTGNIDEAEWEWKAGFHRWNNYMMDWKNQFNDYTSKKESCVGL

How the values were obtained:
AChE [1] = biological target: T1, AChE (Homo sapiens, UniProt P22303); experiment: biochemical; type: biochemical
T1 sequence (P22303 32-614): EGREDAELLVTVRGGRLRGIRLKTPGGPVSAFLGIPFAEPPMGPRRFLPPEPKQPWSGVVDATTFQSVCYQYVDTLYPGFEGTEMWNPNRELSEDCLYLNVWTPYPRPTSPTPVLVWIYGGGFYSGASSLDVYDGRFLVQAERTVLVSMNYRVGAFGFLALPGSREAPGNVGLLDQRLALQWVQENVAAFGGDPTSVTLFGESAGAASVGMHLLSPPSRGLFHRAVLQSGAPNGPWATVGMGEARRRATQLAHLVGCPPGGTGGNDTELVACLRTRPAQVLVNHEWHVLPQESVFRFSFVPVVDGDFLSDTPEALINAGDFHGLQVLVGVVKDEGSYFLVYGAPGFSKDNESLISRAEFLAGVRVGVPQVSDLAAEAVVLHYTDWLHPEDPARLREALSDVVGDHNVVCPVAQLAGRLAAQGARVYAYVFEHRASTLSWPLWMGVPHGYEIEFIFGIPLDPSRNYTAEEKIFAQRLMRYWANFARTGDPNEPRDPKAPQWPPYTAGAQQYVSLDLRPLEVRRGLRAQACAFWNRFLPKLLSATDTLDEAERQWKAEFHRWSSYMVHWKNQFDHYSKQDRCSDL

AChE [2] = biological target: T1, AChE; type: biochemical
ChE = ChE (Homo sapiens, UniProt P06276); type: biochemical
[3] = human, in vivo; cited from earlier work

Molecule | AcThCho degraded (AChE [1]) [pmol/hr per ng mRNA] | remaining activity at 10 µM (AChE [1]) [%] | sensitivity of tumor mRNA-induced AChE activity to selective inhibitor (AChE [2]) | sensitivity of oocyte-produced enzyme to inhibition (in words) (AChE [1]) | sensitivity of tumor mRNA-induced ChE activity to selective inhibitor (ChE) | effect on symptoms of OP-intoxicated patients [3]
C=CC[N+](C)(C)c1ccc(CCC(=O)CCc2ccc([N+](C)(C)CC=C)cc2)cc1 [BW284C51, 1,5-bis-(4-allyldimethylammoniumphenyl)-pentan-3-one dibromide] | 3 ± 1 | 1 ± 0.3 | sensitive | – | – | –
CC(C)NP(=O)(NC(C)C)OP(=O)(NC(C)C)NC(C)C [iso-OMPA, tetraisopropylpyrophosphoramide] | 280 ± 10 | 98 ± 3 | – | totally insensitive | sensitive | –
B1 | – | – | – | – | – | improve the symptoms
